Measured values from patent US20060025482A1, “(-)-Hydroxycitric acid for the modulation of angiotensin-converting enzyme” (priority 2004, published 2006).

Tests used:
[1] = treated rats; cited from earlier work
[2] = system: Sprague-Dawley Rats; experiment: Systolic blood pressure by tail plethysmography in Sprague-Dawley rats on special diet (Example 1); assay type: in vivo, rat; conditions: SD rats
Description: (§1) A know effect of ACE inhibitors is a reduction in elevated systolic blood pressure. To test this, the following protocol was employed: Sprague-Dawley Rats (SD), approximately 8 weeks of age werw obtained. Six groups of eight male SD received the same […] rat chow manufactured to specifications. The special diets derived 30% of calories from fats (one half from lard and one half from corn oil), 50% from carbohydrates, and 20% from proteins. Twenty percent of dietary calories was derived from sucrose and the preponderance of the remaining carbohydrate calories was derived from dextrin. During weekdays (M-F), each group was gavaged twice daily with a solution containing a commercial source of potassium hydroxycitrate (KHCA), a commercial source of potassium-calcium hydroxycitrate (KCaHCA), or a pre-commercial non-salt source of potassium-magnesium hydroxycitrate (KMgHCA, listed as KMgHCA L-Low, M-Intermediate or H-High depending upon the dose). Over the weekends (S-S), a similar quantity of the weekday daily dose was added to twenty grams of food, that is, an amount of food estimated to be close to the daily intake of the animals. At initiation of study and four weeks, and eight weeks later, bloods were drawn from all SD for routine blood chemistries. Body weight (BW) was measured weekly and systolic blood pressure (SBP) was measured every two weeks.
The HCA dosages in the arms varied. The dosage used in the KHCA arm was extrapolated from the recommended 1,500 mg HCA per day for humans consuming a normal diet (i.e., ≧30% calories derived from fats) advocated by a commercial seller of KHCA and claimed to have produced acceptable clinical results. The approximate equivalent for the rat model is 35.4 mg HCA per day, which we increased to 38.4 mg HCA per day for convenience in employing a 48% HCA potassium salt and to remain safely on the high side in practice. For the sake of comparison, a commercial KCaHCA salt (60% HCA) was chosen and delivered at an HCA dosage level of 48 mg per day, which slightly exceeded the lowest dosage of HCA found to be efficacious for inhibition of weight gain in rats in the early pharmaceutical trials (45.4 mg/day) using pure trisodium hydroxycitrate and a very low fat diet. The design thus utilized a realistic diet with rough equivalents of the HCA dosages claimed to be effective in both the human and rat models.
The experimental KMgHCA dosings varied considerably from that of the other two salts. […] As a result, the recalculated HCA doses for the experimental compound were a low dose (KMgHCA L) of 14 mg, an intermediate dose (KMgHCA M) of 28 mg and a high dose (KMgHCA H) of 84 mg per day. The difficulty in calculating the HCA content in this case is not unique inasmuch as there is as of yet no universally accepted method for calculating the HCA content of the various salts. Again, preparations yielded the equivalent of 48 mg HCA per day from KCaHCA and 38.4 mg HCA per day from KHCA.
(§2) Systolic Blood Pressure (SBP): SBP was estimated by tail plethysmography in unanesthetized rats after a brief warming period. Readings were taken approximately one minute apart. To be accepted, SBP measurements had to be virtually stable for a minimum of three consecutive readings.
(§3) Statistical Analyses: Results are presented as mean±SEM. Many statistics were performed by one-way analysis of variance (ANOVA). SBP and BW were examined by two-way analyses of variance (one factor being dietary group and the second factor being time of examination). Where a significant effect of diet was detected by ANOVA (p<0.05), the Dunnett t test was used to establish which differences between means reached statistical significance (p<0.05). If a Student's t test was employed, this is noted.

[3] = Blood chemistries in Sprague-Dawley rats (Example 1); assay type: in vivo, rat; conditions: SD rats; for average insulin concentrations compared to control: differences not significant using ANOVA, all dose groups
Description: as §1, §3

[4] = Earlier study of SBP with a KCaHCA salt, not described; assay type: in vivo; conditions: 120 mg HCA per day
[5] = system: Spontaneously hypertensive rats (SHR); experiment: Systolic blood pressure of SHR on chow/table sugar diet (Example 2); assay type: in vivo, rat; conditions: 100 mg HCA per day in food, control SBP steadily increased
Procedure: as §2
(§4) Spontaneously hypertensive rats (SHR) were placed on a diet composed of regular rat chow (60% w/w) and table sugar (40% w/w). This diet reliably elevates blood pressure in this animal model. One group received 100 mg HCA per day in the form of a new potassium-magnesium hydroxycitrate (different from that used in Example 1) via an added 5 g HCA per kg of food mix. Systolic blood pressure and body weight were tested as in Example 1 on a weekly basis.

[6] = Body weight of SHR on chow/table sugar diet (Example 2); assay type: in vivo, rat; conditions: 100 mg HCA per day in food, p=0.084
Procedure: as §4

[7] = system: Spontaneously hypertensive rats (SHR); experiment: Losartan challenge: SBP response in SHR; assay type: in vivo, rat
Description: Many factors can positively influence blood pressure, e.g., diuretics, antioxidants, regulators of sympathetic/parasympathetic tone, compounds that improve insulin sensitivity and so forth. Therefore, losartan, an angiotensin-2 receptor blocker, was utilized to discover whether the ACE system was involved in the results discussed in Example 1.
as §4
When losartan was injected, the SBP of both groups decreased. At 6 hours, the SBP were essentially the same. […] Thus, HCA appears to decrease angiotensin-2 in rats and to lower elevated SBP. Although insulin regulation likely is a factor in the blood pressure modulating effect of HCA, this evidence argues that inhibition of ACE is also important. […]

[8] = system: Spontaneously hypertensive rats (SHR); experiment: Glucose tolerance test with 0.1 unit regular insulin injected along with glucose in SHR; assay type: in vivo, rat; conditions: 100 mg HCA per day, at 7.5 minutes
Procedure: as §4
This was viewed as likely positive in that rats gain weight steadily as long as they remain in good health and the SHR at middle age, as used here, lives a relatively short life and its health deteriorates as its blood pressure rises. […] A glucose tolerance test was administered in which 0.1 unit of regular insulin was injected along with glucose. […] This finding indicates increased insulin sensitivity. (FIG. 6)

[9] = twice a day; diet consisting of 70% glucose and 1% fat; cited from earlier work
[10] = gavaged twice daily, KHCA 38.4 mg HCA per day, KCaHCA 48 mg HCA per day
[11] = high dose (KMgHCA H) 84 mg HCA per day
[12] = intermediate dose (KMgHCA M) 28 mg HCA per day

O=C(O)CC(O)(C(=O)O)C(O)C(=O)O (single isomer, unassigned; (-)) [(−)-hydroxycitrate, (−)-Hydroxycitric acid]
plasma levels of glucose, insulin, or free fatty acids relative to controls [1]: no significant differences

O=C([O-])CC(O)(C(=O)[O-])C(O)C(=O)[O-].[Ca+2].[K+] (centres unmarked) [KCaHCA, potassium-calcium hydroxycitrate]
SBP compared to control at the end of eight weeks [2, 10]: significant decreases
average insulin concentrations compared to control [3]: did not show a trend toward lower circulating insulin
SBP in earlier study [4]: decrease in SBP

O=C([O-])CC(O)(C(=O)[O-])C(O)C(=O)[O-].[K+].[K+].[K+] (centres unmarked) [KHCA, potassium hydroxycitrate]
SBP compared to control at the end of eight weeks [2, 10]: significant decreases
insulin, control versus treatment, Student's t test ([3]; KHCA 38.4 mg HCA per day): showed significance
average insulin concentrations compared to control [3]: lower

O=C([O-])CC(O)(C(=O)[O-])C(O)C(=O)[O-].[K+].[Mg+2] (centres unmarked) [KMgHCA, potassium-magnesium hydroxycitrate]
SBP compared to control at the end of eight weeks [2, 11]: significant decreases
lowering of SBP at the end of 8 weeks [2, 11]: over 10 mm Hg
SBP compared to control at the end of eight weeks [2, 12]: significant decreases
lowering of SBP at the end of 8 weeks [2, 12]: over 10 mm Hg
SBP at the end of 8 weeks ([2]; low dose (KMgHCA L) 14 mg HCA per day): essentially did nothing
insulin, control versus treatment, Student's t test ([3]; KMgHCA H 84 mg HCA per day, p=0.058): at the margin of significance
average insulin concentrations compared to control [3]: lower
SBP from baseline [5]: decrease in SBP from baseline
body weight over three weeks [6]: trend for an increase
decrease in SBP after losartan injection ([7]; 100 mg HCA per day, at 6 hours, versus control): −21.7±7.0
glucose appearance in bloodstream in glucose tolerance test [8]: significantly lesser rise

CCCCc1nc(Cl)c(CO)n1Cc1ccc(-c2ccccc2-c2nn[nH]n2)cc1 [losartan, reference compound]
SBP after losartan injection ([7]; both groups (control and KMgHCA)): decreased

O=C([O-])CC(O)(C(=O)[O-])C(O)C(=O)[O-].[Na+].[Na+].[Na+] (centres unmarked) [trisodium hydroxycitrate]
lowest dose in rats shown to be efficacious in reducing weight gain [9]: 0.33 mmol/kg
